Several values for one entry are separate records, joined by “and”; a condition that tells them apart may be missing. Identical values can stand only once.
Tests used:
p53 = test: Immunocytochemistry, p53 translocation in MCF-7 cells; format: cell-based, human; details: AECHL-1 2-40 μM, 24 h, confocal microscopy
Description: Immunocytochemistry was performed as described previously. […] Cells were incubated with primary anti-p53 antibodies (1:100; Abcam) and anti-α-tubulin antibodies (1:10000; Sigma chemical Co.) for 1 hour at room temperature. After washing with PBS, cells were incubated with CY2-conjugated secondary antibodies (1:200; Chemicon, Germany) and Alexa-conjugated secondary antibodies (1:10000; Sigma, St. Louis, Mo.) for 45 minutes and nuclear staining was done with DAPI. Images were captured under confocal microscope.
The tumor suppressor p53 plays a critical role in preventing human cancer formation. It translocates into the nucleus and works as a transcription factor by upregulating cell cycle regulatory proteins and induces cell cycle arrest and/or programmed cell death (apoptosis) (11). […] After 24 h of incubation, the p53 translocation in the nucleus (green fluorescence) and microtubule network (red fluorescence) was visualized by confocal microscopy.

[1] = mouse, in vivo
Description: Next, we examined the effects of AECHL-1 on the growth of primary tumor allografts and xenografts of B16F10 cells growing in C57B1/6 mice and MCF-7 cells growing in athymic nude mice respectively. […] On this basis, we chose a dose that was 10-20% of this maximum tolerated dose or 50 and 100 μg/kg/day, i.p. or the doses which induced maximum cell death in vitro.

[2] = test system: HEK 293 (Human embryonic kidney cell line); test: Cell viability assay (MTT); format: cell-based; details: HEK 293, compared with tumor cell lines
Description: The cytotoxic effect of AECHL-1 on the HEK 293, B16F10, PC3, MCF 7 and MDA-MB-231 cells was measured by MTT assay as described in previous studies. The cells were dispensed in 96-well, flat bottom microtiter plates (Becton Dickinson Labware) at a density of 5×10^3 cells each well. […] MTT [3-(4,5-dimethylthiazol-2yl)-2,5-diphenyl tetrazolium bromide] solution (5 mg/ml in PBS) was added at the end of experiment to each well to a final concentration of 0.5 mg/ml, and the cultures were incubated for further 4 h. The resulting formazan crystals were dissolved in 100 μl dimethylsulfoxide (DMSO) and absorbance was measured in a microplate reader at 570 nm (Molecular Devices, Spectra MAX 250). The cytotoxic effect was expressed as a relative percentage of inhibition calculated as follows: Relative inhibition(%)=[(A570 control−A570 AECHL-1)A570 control]×100 Cell Proliferation Assay

MCF-7 = test: In vivo xenograft tumor model; set-up: species or system athymic nude mice; details: for tumor size reduced by: MCF-7 xenograft
Description: The data reported for tumor volumes are expressed as mean±SEM. Statistical differences were determined by ANOVA and post test applied was Tukey-Kramer multiple comparison Test. For Tumor to body weight ratio post test applied was Dunnett multiple comparisons test.

MCF-7 cells = test: Cell cycle analysis by flow cytometry; format: cell-based, human; details: for Phase of cell cycle (% of cells) G1 / Phase of cell cycle (% of cells) G2/M / Phase of cell cycle (% of cells) S / Phase of cell cycle (% of cells) Sub G0: 24 h
Description: (§1) The cell cycle analysis of MCF-7, B16F10 MDA-MB-231 and PC3 cells was done by flow cytometry. […] Cells were harvested with trypsin (0.05%), 0.02% EDTA, 0.05% glucose and a single-cell suspension was prepared. Cells were washed and were pelleted by centrifugation (1000×g for 2 min) and fixed in 70% ethanol while vortexing and stored at 4° C. for 1 hour. Fixed cells were pelleted by centrifugation, to remove ethanol and washed with PBS. Cells were re-suspended in PBS containing 50 μg/ml propidium iodide, 0.1 g/L RNase and 1% BSA, incubated for 30 min at 37° C. in the dark, and analyzed with flow cytometry (FACS Vantage-BD Sciences, USA) equipped with an argon laser at 488 nm. The data was analyzed using Cell Quest software for determining the percent population in different phases of cell cycle.

MDA-MB-231 cells = test: Cell cycle analysis by flow cytometry; format: cell-based, human; details: for Phase of cell cycle (% of cells) G1 / Phase of cell cycle (% of cells) G2/M / Phase of cell cycle (% of cells) S / Phase of cell cycle (% of cells) Sub G0: 24 h
Description: as §1

PC3 cells = test: Cell cycle analysis by flow cytometry; format: cell-based, human; details: for Phase of cell cycle (% of cells) G1 / Phase of cell cycle (% of cells) G2/M / Phase of cell cycle (% of cells) S / Phase of cell cycle (% of cells) Sub G0: 24 h
Description: as §1

## C=C1C(OCC)C2(O)OCC34C(=C(C)c5c(C)cc(O)c(OCC)c5C23)OC(=O)C(OC(=O)C(C)(O)CC)C14 (stereo not shown) [AECHL-1]
p53
  p53 translocation in the nucleus: translocation of the p53 into the nucleus
[1]
  maximum tolerated dose: 500 μg/mice
[2]
  cytotoxicity in normal cells: less cytotoxicity
MCF-7; 5 μg/0.05 ml intra-tumor for 10 days
  tumor size reduced by: 35.72±0.05%
MCF-7; 10 μg/0.05 ml intra-tumor for 10 days
  tumor size reduced by: 28.55±0.06%
MCF-7; 20 μg/0.05 ml intra-tumor for 10 days
  tumor size reduced by: 4.1±0.27%
MCF-7; nude mice, 5 μg
  histological examination of tumor tissue: decreased tumor cell density
MCF-7 cells; MCF-7, 4 μM
  Phase of cell cycle (% of cells) G1: 35.04%
  Phase of cell cycle (% of cells) G2/M: 36.65%
  Phase of cell cycle (% of cells) S: 27.20%
  Phase of cell cycle (% of cells) Sub G0: 1.61%
MCF-7 cells; MCF-7, 10 μM
  Phase of cell cycle (% of cells) G1: 27.85%
  Phase of cell cycle (% of cells) G2/M: 36.78%
  Phase of cell cycle (% of cells) S: 34.19%
  Phase of cell cycle (% of cells) Sub G0: 1.99%
MCF-7 cells; MCF-7, 20 μM
  Phase of cell cycle (% of cells) G1: 29.68%
  Phase of cell cycle (% of cells) G2/M: 31.98%
  Phase of cell cycle (% of cells) S: 37.44%
  Phase of cell cycle (% of cells) Sub G0: 1.81%
MCF-7 cells; MCF-7, 40 μM
  Phase of cell cycle (% of cells) G1: 36.26%
  Phase of cell cycle (% of cells) G2/M: 29.42%
  Phase of cell cycle (% of cells) S: 32.50%
  Phase of cell cycle (% of cells) Sub G0: 2.55%
MCF-7 cells; MCF-7, 100 μM
  % of cells in G0/G1 phase: 36.26%
MCF-7 cells; MCF-7, 100 μM, control 45.13
  cell count in S-G2/M phase: 69.4%
MCF-7 cells; MCF-7 cells
  phase of cell growth arrest: S-G2/M phase
MDA-MB-231 cells; MDA-231, 10 μM
  Phase of cell cycle (% of cells) G1: 43.03%
  Phase of cell cycle (% of cells) G2/M: 32.21%
  Phase of cell cycle (% of cells) S: 24.06%
  Phase of cell cycle (% of cells) Sub G0: 1.03%
MDA-MB-231 cells; MDA-231, 20 μM
  Phase of cell cycle (% of cells) G1: 33.18%
  Phase of cell cycle (% of cells) G2/M: 38.01%
  Phase of cell cycle (% of cells) S: 28.63%
  Phase of cell cycle (% of cells) Sub G0: 0.95%
MDA-MB-231 cells; MDA-231, 40 μM
  Phase of cell cycle (% of cells) G1: 26.66%
  Phase of cell cycle (% of cells) G2/M: 45.14% and 45.15%
  Phase of cell cycle (% of cells) S: 28.12%
  Phase of cell cycle (% of cells) Sub G0: 0.54%
MDA-MB-231 cells; MDA-231, 100 μM
  Phase of cell cycle (% of cells) G1: 22.82%
  Phase of cell cycle (% of cells) G2/M: 46.17%
  Phase of cell cycle (% of cells) S: 30.99%
  Phase of cell cycle (% of cells) Sub G0: 0.58%
MDA-MB-231 cells; MDA-MB 231 cells
  phase of cell growth arrest: S-G2/M phase
PC3 cells; PC3, 10 μM
  Phase of cell cycle (% of cells) G1: 50.74%
  Phase of cell cycle (% of cells) G2/M: 30.94%
  Phase of cell cycle (% of cells) S: 16.21%
  Phase of cell cycle (% of cells) Sub G0: 1.66%
PC3 cells; PC3, 20 μM
  Phase of cell cycle (% of cells) G1: 48.96%
  Phase of cell cycle (% of cells) G2/M: 34.99%
  Phase of cell cycle (% of cells) S: 13.99%
  Phase of cell cycle (% of cells) Sub G0: 1.79%
PC3 cells; PC3, 40 μM
  Phase of cell cycle (% of cells) G1: 44.26%
  Phase of cell cycle (% of cells) G2/M: 33.82%
  Phase of cell cycle (% of cells) S: 17.71%
  Phase of cell cycle (% of cells) Sub G0: 4.14%
PC3 cells; PC3, 100 μM
  Phase of cell cycle (% of cells) G1: 42.92%
  Phase of cell cycle (% of cells) G2/M: 35.37%
  Phase of cell cycle (% of cells) S: 18.25%
  Phase of cell cycle (% of cells) Sub G0: 3.36%
PC3 cells; PC3, 100 μM, vehicle 45.41%
  cell count in S-G2/M phase: 53.62%
PC3 cells; PC3 cells
  phase of cell growth arrest: S-G2/M phase

From US8519163B2, “Anti-tumor activity of AECHL-1, novel triterpenoid isolated from Ailanthus excelsa in vitro and in vivo” (National Centre for Cell Science, priority 2008, dated 2013)
